Publication PMC10225205 (Cancer Medicine, 2023)
“Also recorded” adds a separate entry of the source.

Assays:
advanced solid tumors = experiment: FIGHT-102 efficacy, investigator-assessed RECIST 1.1; assay type: in vivo, human; set-up: key to Best overall response: PR, partial response; SD, stable disease; PD, progressive disease; NE, not evaluable; conditions: Part 2; for Best change in sum of target lesion diameters / Best overall response: 13.5 mg ID
Procedure: Efficacy assessments occurred at screening (baseline scan) and on Day 15 of every third cycle with a ±2‐day window. Tumor status was assessed by the investigator using appropriate disease‐specific techniques. For solid tumors, the Response Evaluation Criteria in Solid Tumors (RECIST) 1.1 criteria were used,[19] and the recommended method for measuring tumor burden was computed tomography scan. Alternative modalities compatible with RECIST 1.1 could be used at the investigator's discretion provided they were used consistently throughout the study.
Both the efficacy and the safety population included all patients who received at least 1 dose of study drug. The PK/pharmacodynamic population included all patients who received at least one dose of study drug and provided at least one postdose plasma sample for PK/pharmacodynamic measurement. No comparisons are made between patients or against historical controls; only comparisons to pretreatment conditions were made.

[1] = FIGHT-101; cited from earlier work
[2] = esophageal cancer, central FGFR1 amp
[3] = lung cancer (NSCLC), central FGFR1 amp, FGF12 amp
[4] = other (apocrine sweat gland carcinoma), central FGFR2 amp
[5] = other (intrahepatic cholangiocarcinoma), central FGFR3 fusion
[6] = other (urachal cancer), central FGF3 amp
[7] = urothelial tract/bladder cancer (bladder cancer), central FGFR3 mutation (p.Y373C)
[8] = urothelial tract/bladder cancer (renal pelvis cancer), central FGF3/4/19 amp
[9] = c1-2 9 mg ID n=3, c3-4 13.5 mg ID n=23, c5-6 18 mg ID n=5, c7-8 ID subtotal n=31, c9-10 13.5 mg CD n=13, c11-12 total n=44, odd c all grades, even c Grade ≥3

SMILES: CCN1C(=O)N(c2c(F)c(OC)cc(OC)c2F)Cc2cnc3[nH]c(CN4CCOCC4)cc3c21 [Pemigatinib]
- Best change in sum of target lesion diameters (advanced solid tumors; [2]): 6.5%
- Best overall response (advanced solid tumors; [2]): SD
- Best change in sum of target lesion diameters (advanced solid tumors; esophageal cancer, central FGFR1 amp, FGF3/4/19 amp (first of two such patients)): 37.8%
- Best overall response (advanced solid tumors; esophageal cancer, central FGFR1 amp, FGF3/4/19 amp (first of two)): PD
- Best change in sum of target lesion diameters (advanced solid tumors; esophageal cancer, central FGFR1 amp, FGF3/4/19 amp (second of two such patients)): 3.0%
- Best overall response (advanced solid tumors; esophageal cancer, central FGFR1 amp, FGF3/4/19 amp (second of two)): PD
- Best change in sum of target lesion diameters (advanced solid tumors; gallbladder cancer, central none, local FGFR3 mutation): 25.0%
- Best overall response (advanced solid tumors; gallbladder cancer, local FGFR3 mutation): PD
- Best change in sum of target lesion diameters (advanced solid tumors; [3]): 22.2%
- Best overall response (advanced solid tumors; [3]): PD
- Best change in sum of target lesion diameters (advanced solid tumors; [4]): –42.1%
- Best overall response (advanced solid tumors; [4]): PR
- Best change in sum of target lesion diameters (advanced solid tumors; [5]): 65.2%
- Best overall response (advanced solid tumors; [5]): PD
- Best change in sum of target lesion diameters (advanced solid tumors; [6]): 44.8%
- Best overall response (advanced solid tumors; [6]): PD
- Best overall response (advanced solid tumors; pancreatic cancer (neuroendocrine), central FGFR1 amp): PD
- Best change in sum of target lesion diameters (advanced solid tumors; pancreatic cancer (neuroendocrine), central FGFR1 amp, local FGFR1 mutation (p.N577K)): 40.8%
- Best change in sum of target lesion diameters (advanced solid tumors; [7]): –19.6%
- Best overall response (advanced solid tumors; [7]): SD
- Best change in sum of target lesion diameters (advanced solid tumors; [8]): 24.2%
- Best overall response (advanced solid tumors; [8]): PD
- Median duration of response (advanced solid tumors; responders, 95% CI: 4.17, 14.95): 9.56 months
- Most common (>30%) overall TEAEs [1]: hyperphosphatemia, fatigue, dry mouth, stomatitis, diarrhea, and alopecia
- Recommended dosage for further studies [1]: 13.5 mg QD
- Maximum tolerated dose (MTD) (9-18 mg QD): not identified; also recorded: not reached
- Clinically notable TEAE: Eyelash changes (trichiasis) [9]: 2 (15.4) n (%)
- TEAE: ALT increased [9]: 6 (13.6) n (%)
- TEAE: AST increased [9]: 2 (15.4) n (%)
- TEAE: Blood alkaline phosphatase increased [9]: 2 (15.4) n (%)
- TEAE: Blood creatinine increased [9]: 6 (13.6) n (%)
- TEAE: Conjunctivitis [9]: 2 (15.4) n (%)
- TEAE: Decreased appetite [9]: 2 (15.4) n (%)
- TEAE: Dry skin [9]: 2 (15.4) n (%)
- TEAE: Keratitis [9]: 2 (15.4) n (%)
- TEAE: Malaise [9]: 6 (13.6) n (%)
- TEAE: Nail discoloration [9]: 2 (15.4) n (%)
- TEAE: Paronychia [9]: 6 (13.6) n (%)
- TEAE: Punctate keratitis [9]: 2 (15.4) n (%)
- TEAE: Trichiasis [9]: 2 (15.4) n (%)
- TEAE: Vomiting [9]: 6 (13.6) n (%)
- Chorioretinopathy (human, in vivo): 2.3%
- Clinically notable TEAE: serous retinal detachment (category) (human, in vivo): 18.2%
- Clinically notable ocular TEAE: dry eye (category) (human, in vivo): 25%
- Dose interruptions due to clinically notable TEAEs (human, in vivo): 22.7%
- Dose reductions due to clinically notable TEAEs (human, in vivo): 6.8%
- Dry eye (term) (human, in vivo): 6.8%
- Eyelash changes (trichiasis) (human, in vivo): 9.1%
- Hyperphosphatemia leading to dose reduction (human, in vivo): 2.3%
- Hypophosphatemia (human, in vivo): 4.5%
- Keratitis (human, in vivo): 11.4%
- Lacrimation increased (human, in vivo): 2.3%
- Nail discoloration (human, in vivo): 6.8%
- Nail ridging (human, in vivo): 2.3%
- Nail toxicity TEAEs (human, in vivo): 31.8
- Oncholysis (human, in vivo): 4.5%
- Onychomadesis (human, in vivo): 11.4%
- Paronychia (human, in vivo): 13.6%
- Patients with at least 1 treatment-related TEAE (human, in vivo): 97.7%
- Patients with treatment-related TEAEs of Grade ≥3 (human, in vivo): 15.9%
- Punctate keratitis (human, in vivo): 6.8%
- Serous retinal detachment (term) (human, in vivo): 11.4%
- Severity of hyperphosphatemia events (human, in vivo): Grades 1 or 2
- Subretinal fluid (human, in vivo): 4.5%
- Treatment-related Grade ≥3 TEAE, each of anemia, punctate keratitis, diarrhea, stomatitis, ALT increased, AST increased, decreased appetite, hematuria (human, in vivo): 2.3%
- Treatment-related alanine aminotransferase increased, Grade ≥3 (human, in vivo): 1 (2.3) n (%)
- Treatment-related aspartate aminotransferase increased, Grade ≥3 (human, in vivo): 1 (2.3) n (%)
- Treatment-related decreased appetite, Grade ≥3 (human, in vivo): 1 (2.3) n (%)
- Treatment-related diarrhea, Grade ≥3 (human, in vivo): 1 (2.3) n (%)
- Treatment-related stomatitis, Grade ≥3 (human, in vivo): 1 (2.3) n (%)
- Vision blurred (human, in vivo): 4.5%
- Recommended phase 2 dose (RP2D) (human, in vivo, 21 days): 13.5 mg
- Discontinuation due to hyperphosphatemia (in vivo): No patients
- Dose-limiting toxicities (DLTs) (in vivo): No DLTs
- Patients with any TEAE (in vivo): all enrolled patients
- TEAE with a fatal outcome (overall, considered unrelated to pemigatinib): 6.8%
